# Source: ChEMBL document CHEMBL5634141 (Eur J Med Chem, 2023)
# pIC50: −log10 of the molar value. Active and inactive are the calls of the source. No cut-off for these calls is given here.
# Key:
# [1] = test system: von Hippel-Lindau disease tumor suppressor/GTPase KRas (Homo sapiens), P01116+P40337 [G12C]; test: PROTAC activity at VHL/KRAS G12C mutant in human NCI-H358 cells assessed as induction of protein degradation at 300 nM incubated for 6 hrs by Western blotting analysis relative to control; format: cell-based
# [2] = test system: von Hippel-Lindau disease tumor suppressor/GTPase KRas (Homo sapiens), P01116+P40337 [G12C]; test: (§1) PROTAC activity at VHL/KRAS G12C mutant in human NCI-H358 cells assessed as induction of protein degradation incubated for 72 hrs by Western blot analysis; format: cell-based
# [3] = molecular target: von Hippel-Lindau disease tumor suppressor/GTPase KRas (Homo sapiens, UniProt P01116+P40337, G12C); test: as §1; format: cell-based
# von Hippel-Lindau disease tumor suppressor/GTPase KRas, sequence (P01116 whole entry G12C, stated change not applied): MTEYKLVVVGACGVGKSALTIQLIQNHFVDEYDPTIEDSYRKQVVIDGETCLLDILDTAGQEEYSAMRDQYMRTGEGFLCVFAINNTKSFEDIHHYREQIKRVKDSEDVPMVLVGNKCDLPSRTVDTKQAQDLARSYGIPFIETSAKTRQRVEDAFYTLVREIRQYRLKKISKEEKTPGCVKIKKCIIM
# von Hippel-Lindau disease tumor suppressor/GTPase KRas, sequence (P40337 whole entry partner, stated change not applied): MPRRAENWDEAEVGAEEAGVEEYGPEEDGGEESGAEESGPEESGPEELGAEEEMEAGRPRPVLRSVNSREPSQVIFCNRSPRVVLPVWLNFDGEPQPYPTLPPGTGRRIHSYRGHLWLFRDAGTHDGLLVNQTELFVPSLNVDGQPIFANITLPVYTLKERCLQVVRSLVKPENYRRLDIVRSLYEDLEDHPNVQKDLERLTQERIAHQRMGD
# NCI-H358 [4] = test: Synergistic antiproliferative activity against human NCI-H358 cells expressing KRAS G12C mutant assessed as combination index at 30 nM incubated for 72 hrs in presence of MK-2206 by CCK-8 assay; format: functional
# MIA PaCa-2 [5] = test: Antitumor activity against human MIA PaCa-2 cells xenografted in BALB/c nude mouse assessed as tumor growth inhibition at 30 mg/kg, ip measured after 16 days relative to control; format: functional; conditions: MIA PaCa-2, 384 h, time 16 day, read-out: TGI
# [6] = Downregulation of KRAS G12C mutant expression in human NCI-H358 cells assessed as log2 of fold change at 200 nM incubated for 48 hrs by MS-based proteomic analysis; format: functional
# Calu-1 [7] = test: Antiproliferative activity against human Calu-1 cells expressing KRAS G12C mutant assessed as relative cell viability at 30 nM incubated for 72 hrs in presence of daclolisib by CCK-8 assay; format: functional; conditions: read-out: Activity
# MIA PaCa-2 [8] = test: Antitumor activity against human MIA PaCa-2 cells xenografted in BALB/c nude mouse assessed as tumor growth inhibition at 10 mg/kg, ip measured after 8 days relative to control; format: functional; conditions: MIA PaCa-2, 192 h, time 8 day, read-out: TGI
# [9] = Volume of distribution at steady state in ICR mouse at 2 mg/kg, iv measured after 24 hrs by LC-MS/MS analysis; format: ADME, organism-based; conditions: in vivo
# ASPC1 = test: Antiproliferative activity against human ASPC1 cells expressing KRAS G12D mutant assessed as inhibition of cell growth incubated for 72 hrs by CCK-8 assay; format: functional, cell-based; conditions: ASPC1, 72 h
# NCI-H358 [10] = test: Synergistic antiproliferative activity against human NCI-H358 cells expressing KRAS G12C mutant assessed as combination index at 30 nM incubated for 72 hrs in presence of selumetinib by CCK-8 assay; format: functional
# Calu-1 [11] = test: Antiproliferative activity against human Calu-1 cells expressing KRAS G12C mutant assessed as relative cell viability at 30 nM incubated for 72 hrs in presence of crizotinib by CCK-8 assay; format: functional; conditions: read-out: Activity
# [12] = test system: von Hippel-Lindau disease tumor suppressor/GTPase KRas (Homo sapiens), P01116+P40337 [G12C]; test: PROTAC activity at VHL/KRAS G12C mutant in human MIA PaCa-2 cells assessed as induction of protein degradation in presence of MG132 by Western blot analysis; format: cell-based
# [13] = Toxicity in BALB/c nude mouse xenografted with human MIA PaCa-2 cells at 10 to 30 mg/kg, ip measured after 16 days; format: organism-based; conditions: in vivo, 384 h, dose 10-30 mg/kg, time 16 day
# MIA PaCa-2 [14] = test: Antiproliferative activity against human MIA PaCa-2 cells expressing KRAS G12C mutant assessed as relative cell viability at 30 nM incubated for 72 hrs by CCK-8 assay; format: functional; conditions: read-out: Activity
# NCI-H358 [15] = test: Inhibition of cell migration in human NCI-H358 cells incubated for 12 hrs by wound healing assay; format: functional, cell-based; conditions: dose 30-300 nM
# MIA PaCa-2 [16] = test: Antiproliferative activity against human MIA PaCa-2 cells expressing KRAS G12C mutant assessed as inhibition of cell growth at 100 nM incubated for 8 days by CCK-8 assay; format: functional, cell-based; conditions: time 8.0 day
# [17] = test system: von Hippel-Lindau disease tumor suppressor/GTPase KRas (Homo sapiens), P01116+P40337 [G12C]; test: PROTAC activity at VHL/KRAS G12C mutant in human NCI-H358 cells assessed as induction of protein degradation at 100 nM incubated for 48 hrs by Western blotting analysis relative to control; format: cell-based
# NCI-H358 [18] = test: Induction of cell cycle arrest in human NCI-H358 cells assessed as accumulation of cells at G2/M phase incubated for 48 hrs by propidium iodide staining based flow cytometry analysis; format: functional; conditions: dose 30-300 nM
# [19] = AUC (0 to t) in ICR mouse at 2 mg/kg, iv measured after 24 hrs by LC-MS/MS analysis; format: ADME, organism-based; conditions: in vivo
# [20] = test system: von Hippel-Lindau disease tumor suppressor/GTPase KRas (Homo sapiens), P01116+P40337 [G12C]; test: PROTAC activity at VHL/KRAS G12C mutant in human MIA PaCa-2 cells assessed as inhibition of ERK phosphorylation by Western blotting analysis; format: cell-based
# NCI-H358 [21] = test: Synergistic antiproliferative activity against human NCI-H358 cells expressing KRAS G12C mutant assessed as combination index incubated for 72 hrs in presence of linsitinib by CCK-8 assay; format: functional
# NCI-H358 [22] = test: Antiproliferative activity against human NCI-H358 cells expressing KRAS G12C mutant assessed as reduction of cell growth by measuring fold decrease in IC50 incubated for 72 hrs in presence of SHP099 by CCK-8 assay; format: functional
# NCI-H358 [23] = test: Synergistic antiproliferative activity against human NCI-H358 cells expressing KRAS G12C mutant assessed as combination index at 30 nM incubated for 72 hrs in presence of crizotinib by CCK-8 assay; format: functional
# NCI-H23 = test: Antiproliferative activity against human NCI-H23 cells expressing KRAS G12C mutant assessed as relative cell viability at 30 nM incubated for 72 hrs in presence of crizotinib by CCK-8 assay; format: functional; conditions: read-out: Activity
# [24] = test system: von Hippel-Lindau disease tumor suppressor/GTPase KRas (Homo sapiens), P01116+P40337 [G12C]; test: PROTAC activity at VHL/KRAS G12C mutant in human MIA PaCa-2 cells assessed as induction of protein degradation at 100 nM incubated for 48 hrs followed by compound washout and measured after 48 hrs by Western blotting analysis; format: cell-based
# MIA PaCa-2 [25] = test: Antiproliferative activity against human MIA PaCa-2 cells expressing KRAS G12C mutant assessed as inhibition of cell growth incubated for 72 hrs by CCK-8 assay; format: functional, cell-based; conditions: MIA PaCa-2, 72 h
# [26] = test system: von Hippel-Lindau disease tumor suppressor/GTPase KRas (Homo sapiens), P01116+P40337 [G12C]; test: PROTAC activity at VHL/KRAS G12C mutant in human NCI-H358 cells assessed as induction of protein degradation at 100 nM preincubated with AMG510 for 6 hrs followed by compound addition and measured after 48 hrs by Western blotting analysis; format: cell-based
# [27] = test system: von Hippel-Lindau disease tumor suppressor/GTPase KRas (Homo sapiens), P01116+P40337 [G12C]; test: Protac activity at VHL/KRAS G12C mutant in human NCI-H358 cells assessed as induction of protein degradation at 100 nM preincubated with VH032 for 6 hrs followed by compound addition and measured after 48 hrs by Western blot analysis; format: cell-based
# [28] = test system: von Hippel-Lindau disease tumor suppressor/GTPase KRas (Homo sapiens), P01116+P40337 [G12C]; test: PROTAC activity at VHL/KRAS G12C mutant in human MIA PaCa-2 cells assessed as induction of protein degradation by measuring maximal efficacy by Western blotting analysis relative to control; format: cell-based
# Calu-1 [29] = test: Antiproliferative activity against human Calu-1 cells expressing KRAS G12C mutant assessed as relative cell viability at 30 nM incubated for 72 hrs by CCK-8 assay; format: functional; conditions: Calu-1, read-out: Activity
# [30] = test system: von Hippel-Lindau disease tumor suppressor/GTPase KRas (Homo sapiens), P01116+P40337 [G12C]; test: PROTACactivity at VHL/KRAS G12C mutant in human NCI-H358 cells assessed as induction of protein degradation by measuring maximal efficacy incubated for 72 hrs by Western blot analysis relative to control; format: cell-based
smiles,measurement,setting,value
C=CC(=O)N1CCN(c2nc(=O)n(-c3c(C)ccnc3C(C)C)c3nc(-c4c(F)cccc4OCC4CCN(CCCC(=O)N[C@H](C(=O)N5C[C@H](O)C[C@H]5C(=O)NCc5ccc(-c6scnc6C)cc5)C(C)(C)C)CC4)c(F)cc23)[C@@H](C)C1,Activity,[1],50%
same,Activity,[2],Dose-Dependent Effect
same,DC50,[3],0.067 µM
same,CI,NCI-H358 [4],<1
same,inhibition in vivo at 30 mg/kg,MIA PaCa-2 [5],100%
same,log2FC,[6],>1
same,viability at 0.03 µM,Calu-1 [7],0.12%
same,inhibition in vivo at 10 mg/kg,MIA PaCa-2 [8],93.4%
same,Vdss,[9],2 L/kg
same,pIC50,ASPC1,< 5.00
same,CI,NCI-H358 [10],<1
same,viability at 0.03 µM,Calu-1 [11],0.31%
same,Activity,[12],inactive
same,Activity,[13],Non-Toxic
same,viability at 0.03 µM,MIA PaCa-2 [14],0.71%
same,inhibition,NCI-H358 [15],Dose-Dependent Effect
same,Activity,MIA PaCa-2 [16],Active
same,Activity,[17],100%
same,Activity,NCI-H358 [18],Dose-Dependent Effect
same,AUC(0-t) at 24 h,[19],0.399 µg·h/mL
same,Activity,[20],Dose-Dependent Effect
same,CI,NCI-H358 [21],<1
same,fold change (FC),NCI-H358 [22],~4
same,CI,NCI-H358 [23],<1
same,viability at 0.03 µM,NCI-H23,0.33%
same,Activity,[24],inactive
same,pIC50,MIA PaCa-2 [25],7.35
same,Activity,[26],inactive
same,Activity,[27],inactive
same,Emax,[28],> 95%
same,viability at 0.03 µM,Calu-1 [29],77%
same,Emax,[30],> 95%
